Each compound was assayed against LRRK2 (Homo sapiens, UniProt Q5S007) (assay: LRRK2 affinity (Ki)). Details: LRRK2 affinity (micromolar), Table 1.
Type: binding

Sequence of LRRK2 (Q5S007 whole entry): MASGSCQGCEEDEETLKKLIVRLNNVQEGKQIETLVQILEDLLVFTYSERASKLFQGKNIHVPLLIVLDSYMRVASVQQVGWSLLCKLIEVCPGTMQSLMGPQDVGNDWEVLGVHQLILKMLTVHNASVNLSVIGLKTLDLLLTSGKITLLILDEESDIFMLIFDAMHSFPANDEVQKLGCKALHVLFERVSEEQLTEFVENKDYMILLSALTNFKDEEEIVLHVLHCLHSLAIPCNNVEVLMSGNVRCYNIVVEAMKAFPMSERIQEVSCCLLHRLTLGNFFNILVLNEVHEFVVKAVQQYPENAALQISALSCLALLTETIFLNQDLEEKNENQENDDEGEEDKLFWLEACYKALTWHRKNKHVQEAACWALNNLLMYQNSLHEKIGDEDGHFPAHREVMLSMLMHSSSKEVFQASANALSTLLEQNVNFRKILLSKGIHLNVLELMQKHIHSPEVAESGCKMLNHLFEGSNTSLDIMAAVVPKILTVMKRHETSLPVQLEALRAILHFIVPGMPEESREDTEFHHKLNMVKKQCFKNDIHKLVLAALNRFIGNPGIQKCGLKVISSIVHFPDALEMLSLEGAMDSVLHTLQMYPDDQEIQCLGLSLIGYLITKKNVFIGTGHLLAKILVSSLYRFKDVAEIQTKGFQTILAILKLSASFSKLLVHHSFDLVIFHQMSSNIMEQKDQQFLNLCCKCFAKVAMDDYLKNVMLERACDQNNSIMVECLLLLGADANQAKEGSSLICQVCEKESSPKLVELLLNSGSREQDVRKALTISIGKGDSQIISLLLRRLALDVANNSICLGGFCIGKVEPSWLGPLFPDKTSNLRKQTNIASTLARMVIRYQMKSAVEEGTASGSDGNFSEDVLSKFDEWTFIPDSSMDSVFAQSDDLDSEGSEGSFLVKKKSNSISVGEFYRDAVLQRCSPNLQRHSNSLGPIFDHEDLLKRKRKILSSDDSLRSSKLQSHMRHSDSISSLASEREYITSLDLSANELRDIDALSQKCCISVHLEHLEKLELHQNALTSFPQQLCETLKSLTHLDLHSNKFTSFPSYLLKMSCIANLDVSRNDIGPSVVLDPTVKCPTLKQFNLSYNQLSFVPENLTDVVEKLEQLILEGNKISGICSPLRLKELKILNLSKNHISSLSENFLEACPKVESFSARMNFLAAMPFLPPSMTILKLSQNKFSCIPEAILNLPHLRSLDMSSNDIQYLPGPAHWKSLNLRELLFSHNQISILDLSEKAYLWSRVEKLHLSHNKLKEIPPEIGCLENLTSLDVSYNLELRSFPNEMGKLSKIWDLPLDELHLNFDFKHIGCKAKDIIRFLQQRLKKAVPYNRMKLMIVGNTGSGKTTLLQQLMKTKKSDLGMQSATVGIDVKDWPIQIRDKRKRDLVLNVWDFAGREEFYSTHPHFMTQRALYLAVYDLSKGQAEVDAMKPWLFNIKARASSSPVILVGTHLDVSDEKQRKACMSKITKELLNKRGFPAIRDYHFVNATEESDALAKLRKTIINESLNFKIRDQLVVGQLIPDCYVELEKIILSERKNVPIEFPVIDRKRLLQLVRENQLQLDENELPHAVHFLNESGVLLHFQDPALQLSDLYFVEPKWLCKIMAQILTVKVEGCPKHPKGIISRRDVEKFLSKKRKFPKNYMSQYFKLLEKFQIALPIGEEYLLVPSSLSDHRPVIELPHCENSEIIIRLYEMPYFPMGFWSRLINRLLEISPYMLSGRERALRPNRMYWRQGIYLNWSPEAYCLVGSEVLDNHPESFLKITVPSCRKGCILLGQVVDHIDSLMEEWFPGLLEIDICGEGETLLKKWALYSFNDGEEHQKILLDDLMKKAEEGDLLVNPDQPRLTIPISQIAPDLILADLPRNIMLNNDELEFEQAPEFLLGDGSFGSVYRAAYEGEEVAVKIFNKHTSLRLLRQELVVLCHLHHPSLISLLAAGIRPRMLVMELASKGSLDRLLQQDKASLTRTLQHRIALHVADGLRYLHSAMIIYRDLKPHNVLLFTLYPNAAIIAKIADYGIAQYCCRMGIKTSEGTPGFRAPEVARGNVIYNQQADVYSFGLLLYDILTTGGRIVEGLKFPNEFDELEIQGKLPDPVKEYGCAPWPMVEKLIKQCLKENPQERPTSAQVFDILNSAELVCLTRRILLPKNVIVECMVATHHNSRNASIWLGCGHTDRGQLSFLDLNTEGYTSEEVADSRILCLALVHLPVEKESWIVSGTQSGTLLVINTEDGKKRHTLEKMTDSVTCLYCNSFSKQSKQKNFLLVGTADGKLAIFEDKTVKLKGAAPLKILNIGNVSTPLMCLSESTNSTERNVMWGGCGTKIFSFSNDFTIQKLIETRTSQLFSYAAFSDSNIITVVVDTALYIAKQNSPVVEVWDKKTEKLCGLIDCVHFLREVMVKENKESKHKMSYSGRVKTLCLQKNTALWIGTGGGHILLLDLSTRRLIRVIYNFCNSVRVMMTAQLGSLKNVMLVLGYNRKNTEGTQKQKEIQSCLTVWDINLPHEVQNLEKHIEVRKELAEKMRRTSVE

Ki [nM] | SMILES
0.6 | O=C(c1cc(OCCF)c(Nc2ncc(C(F)(F)F)c(NC3CC3)n2)cc1F)N1CCOCC1 [Compound 1, (4-(4-(cyclopropylamino)-5-(trifluoromethyl)pyrimidin-2-ylamino)-2-fluoro-5-(2-fluoroethoxy)phenyl)(morpholino) methanone]
1 | CNc1nc(Nc2cc(C)c(C(=O)N3CCOCC3)cc2OCF)ncc1C(F)(F)F [Compound 2, (5-(fluoromethoxy)-2-methyl-4-(4-(methylamino)-5-(trifluoromethyl)pyrimidin-2-ylamino)phenyl)(morpholino) methanone]
1.5 | CCNc1nc(Nc2cc(OCF)c(C(=O)N3CCCC3)cc2Cl)ncc1C(F)(F)F [Compound 5, (5-chloro-4-(4-(ethylamino)-5-(trifluoromethyl)pyrimidin-2-ylamino)-2-(fluoromethoxy)phenyl)(pyrrolidin-1-yl)methanone]
0.4 | CCNc1nc(Nc2cc(OC)c(C(=O)N3CCC(F)(F)C3)cc2OCF)ncc1C(F)(F)F [Compound 6, (3,3-difluoropyrrolidin-1-yl)(4-(4-(ethylamino)-5-(trifluoromethyl)pyrimidin-2-ylamino)-5-(fluoromethoxy)-2-methoxyphenyl)methanone]
0.7 | CNc1nc(Nc2cc(C)c(C(=O)N3CCCC3)cc2OCF)ncc1C(F)(F)F [Compound 7, (5-(fluoromethoxy)-2-methyl-4-(4-(methylamino)-5-(trifluoromethyl)pyrimidin-2-ylamino)phenyl)(pyrrolidin-1-yl)methanone]
1.1 | CCNc1nc(Nc2cc(OC)c(C(=O)N3CCC(F)(F)C3)cc2OC)ncc1C(F)(F)F [Compound 8, (3,3-difluoropyrrolidin-1-yl)(4-(4-(ethylamino)-5-(trifluoromethyl)pyrimidin-2-ylamino)-2,5-dimethoxyphenyl)methanone]
1.5 | CNc1nc(Nc2cc(OC)c(C(=O)N3CCC(F)(F)C3)cc2OCCF)ncc1C(F)(F)F [Compound 9, (3,3-difluoropyrrolidin-1-yl)(5-(2-fluoroethoxy)-2-methoxy-4-((4-(methylamino)-5-(trifluoromethyl)pyrimidin-2-yl)amino)phenyl)methanone]
1.5 | CCNc1nc(Nc2cc(F)c(CN3CCOCC3)cc2OCCF)ncc1C(F)(F)F [Compound 10, N4-ethyl-N2-(5-fluoro-2-(2-fluoroethoxy)-4-(morpholinomethyl)phenyl)-5-(trifluoromethyl)pyrimidine-2,4-diamine]
1.6 | CNc1nc(Nc2cc(OC)c(C(=O)N3CCCCC3)cc2OCF)ncc1C(F)(F)F [Compound 11, (5-(fluoromethoxy)-2-methoxy-4-(4-(methylamino)-5-(trifluoromethyl)pyrimidin-2-ylamino)phenyl)(piperidin-1-yl)methanone]
2 | CCNc1nc(Nc2cc(F)c(C(=O)N3CCOCC3)cc2OCCF)ncc1C(F)(F)F [Compound 12, (4-(4-(ethylamino)-5-(trifluoromethyl)pyrimidin-2-ylamino)-2-fluoro-5-(2-fluoroethoxy)phenyl)(morpholino) methanone]
2.3 | CNc1nc(Nc2cc(C)c(C(=O)N3CCOCC3)cc2OCCF)ncc1C(F)(F)F [Compound 13, (5-(2-fluoroethoxy)-2-methyl-4-(4-(methylamino)-5-(trifluoromethyl)pyrimidin-2-ylamino)phenyl)(morpholino) methanone]
3.2 | CNc1nc(Nc2cc(OC)c(C(=O)N3CCCC3)cc2OCF)ncc1C(F)(F)F [Compound 14, (5-(fluoromethoxy)-2-methoxy-4-(4-(methylamino)-5-(trifluoromethyl)pyrimidin-2-ylamino)phenyl)(pyrrolidin-1-yl)methanone]
3.3 | CNc1nc(Nc2ccc(S(C)(=O)=O)cc2OCCF)ncc1C(F)(F)F [Compound 15, N2-(2-(2-fluoroethoxy)-4-(methylsulfonyl)phenyl)-N4-methyl-5-(trifluoromethyl)pyrimidine-2,4-diamine]
3.4 | CCNc1nc(Nc2cc(OCF)c(C(=O)N3CCCC3)cc2F)ncc1C(F)(F)F [Compound 16, (4-(4-(ethylamino)-5-(trifluoromethyl)pyrimidin-2-ylamino)-5-fluoro-2-(fluoromethoxy)phenyl)(pyrrolidin-1-yl)methanone]
3.5 | CNc1nc(Nc2cc(F)c(C(=O)N3CCOCC3)cc2OCCF)ncc1C(F)(F)F [Compound 17, (2-fluoro-5-(2-fluoroethoxy)-4-(4-(methylamino)-5-(trifluoromethyl)pyrimidin-2-ylamino)phenyl)(morpholino) methanone]
3.7 | CNc1nc(Nc2cc(F)c(CN3CCOCC3)cc2OCCF)ncc1C(F)(F)F [Compound 18, N2-(5-fluoro-2-(2-fluoroethoxy)-4-(morpholinomethyl)phenyl)-N4-methyl-5-(trifluoromethyl)pyrimidine-2,4-diamine]
4 | CNc1nc(Nc2cc(OC)c(C(=O)N(C)C)cc2OCF)ncc1C(F)(F)F [Compound 19, 5-(fluoromethoxy)-2-methoxy-N,N-dimethyl-4-(4-(methylamino)-5-(trifluoromethyl)pyrimidin-2-ylamino)benzamide]
4.7 | CNc1nc(Nc2cc(OC)c(C(=O)N3CCCC3)cc2OCCF)ncc1C(F)(F)F [Compound 20, (5-(2-fluoroethoxy)-2-methoxy-4-(4-(methylamino)-5-(trifluoromethyl)pyrimidin-2-ylamino)phenyl)(pyrrolidin-1-yl)methanone]

Ki [nM] | SMILES
6.6 | CNc1nc(Nc2ccc(CN3CCOCC3)cc2OCCF)ncc1C(F)(F)F [Compound 21, N2-(2-(2-fluoroethoxy)-4-(morpholinomethyl)phenyl)-N4-methyl-5-(trifluoromethyl)pyrimidine-2,4-diamine]
6.5 | CNc1nc(Nc2cc(F)c(C(=O)N3CCCC3)cc2OCF)ncc1C(F)(F)F [Compound 22, (2-fluoro-5-(fluoromethoxy)-4-(4-(methylamino)-5-(trifluoromethyl)pyrimidin-2-ylamino)phenyl)(pyrrolidin-1-yl)methanone]
11 | COc1nc(Nc2cc(C)c(C(=O)N3CCCC3)cc2OCF)ncc1Cl [Compound 24, (4-(5-chloro-4-methoxypyrimidin-2-ylamino)-5-(fluoromethoxy)-2-methylphenyl)(pyrrolidin-1-yl)methanone]
12 | COc1nc(Nc2ccc(CN3CCOCC3)cc2OCCF)ncc1Cl [Compound 25, 5-chloro-N-(2-(2-fluoroethoxy)-4-(morpholinomethyl)phenyl)-4-methoxypyrimidin-2-amine]
12 | COc1nc(Nc2ccc(S(C)(=O)=O)cc2OCCF)ncc1Cl [Compound 26, 5-chloro-N-(2-(2-fluoroethoxy)-4-(methylsulfonyl)phenyl)-4-methoxypyrimidin-2-amine]
12 | CNc1nc(Nc2ccc(S(C)(=O)=O)cc2OCCF)ncc1Cl [Compound 27, 5-chloro-N2-(2-(2-fluoroethoxy)-4-(methylsulfonyl)phenyl)-N4-methylpyrimidine-2,4-diamine]
15 | COc1nc(Nc2ccc(C(=O)N3CCOCC3)cc2OCCF)ncc1Cl [Compound 28, (4-(5-chloro-4-methoxypyrimidin-2-ylamino)-3-(2-fluoroethoxy)phenyl)(morpholino) methanone]
21 | CNc1nc(Nc2cnc(N3CCOCC3)cc2OCCF)ncc1C(F)(F)F [Compound 29, N2-(4-(2-fluoroethoxy)-6-morpholinopyridin-3-yl)-N4-methyl-5-(trifluoromethyl)pyrimidine-2,4-diamine]
2.3 | CNc1nc(Nc2ccc(C(=O)N3CCOCC3)cc2OCCF)ncc1C(F)(F)F [Compound 30, (3-(2-fluoroethoxy)-4-(4-(methylamino)-5-(trifluoromethyl)pyrimidin-2-ylamino)phenyl)(morpholino) methanone]
4.2 | CNc1nc(Nc2cnn(C3CCN(CCF)CC3)c2C)ncc1C(F)(F)F [Compound 31, N2-(1-(1-(2-fluoroethyl)piperidin-4-yl)-5-methyl-1H-pyrazol-4-yl)-N4-methyl-5-(trifluoromethyl)pyrimidine-2,4-diamine]
21 | COc1nc(Nc2cnn(C3CCN(CCF)CC3)c2C)ncc1Cl [Compound 32, 5-chloro-N-(1-(1-(2-fluoroethyl)piperidin-4-yl)-5-methyl-1H-pyrazol-4-yl)-4-methoxypyrimidin-2-amine]
25 | CNc1nc(Nc2cn(C3CCN(CCF)CC3)nc2C)ncc1C(F)(F)F [Compound 33, N2-(1-(1-(2-fluoroethyl)piperidin-4-yl)-3-methyl-1H-pyrazol-4-yl)-N4-methyl-5-(trifluoromethyl)pyrimidine-2,4-diamine]
24 | CNc1nc(Nc2cnn(C)c2CF)ncc1C(F)(F)F [Compound 34, N2-(5-(fluoromethyl)-1-methyl-1H-pyrazol-4-yl)-N4-methyl-5-(trifluoromethyl)pyrimidine-2,4-diamine]
1.1 | CNc1nc(Nc2cn(CCF)nc2C)ncc1C(F)(F)F [Compound 35, N2-(1-(2-fluoroethyl)-3-methyl-1H-pyrazol-4-yl)-N4-methyl-5-(trifluoromethyl)pyrimidine-2,4-diamine]
1.8 | CNc1nc(Nc2cnn(CCF)c2C)ncc1C(F)(F)F [Compound 36, N2-(1-(2-fluoroethyl)-5-methyl-1H-pyrazol-4-yl)-N4-methyl-5-(trifluoromethyl)pyrimidine-2,4-diamine]
2.7 | CNc1nc(Nc2ccc(C(=O)N3CCOCC3)cc2OC)ncc1C(F)(F)F [Compound 38, (3-methoxy-4-(4-(methylamino)-5-(trifluoromethyl)pyrimidin-2-ylamino)phenyl)(morpholino) methanone]
14 | COc1nc(Nc2ccc(C(=O)N3CCOCC3)cc2OCCF)ncc1Cl [Compound 40, (4-((5-chloro-4-methoxypyrimidin-2-yl)amino)-3-(2-fluoroethoxy)phenyl)(morpholino) methanone]
2 | [2H]C([2H])(F)C([2H])([2H])n1ncc(Nc2ncc(C(F)(F)F)c(NC)n2)c1C [Compound 48, N2-(1-(2-fluoro-1,1,2,2-tetradeutero-ethyl)-5-methyl-1H-pyrazol-4-yl)-N4-methyl-5-(trifluoromethyl)pyrimidine-2,4-diamine]

Source: patent US9139566B2, “Fluorine-18 and carbon-11 labeled radioligands for positron emission tomography (PET) imaging for LRRK2” (Genentech, Inc., priority 2011, dated 2015)
